Experimental data taken from US10626081B2, “Farnesoid X receptor agonists and uses thereof” (Metacrine, Inc., priority 2015, dated 2020).

Assays:
FXR [1] = target: T1, FXR (Homo sapiens, UniProt Q96RI1); test: In Vitro FXR Assay (PGL3): luciferase reporter in transfected CV-1 cells; assay type: cell-based; conditions: CV-1 cells transfected with hFXR, hRXR, PGL3-ECRE*6-luc; 18 h incubation; luminescence
T1 construct: expressed in transfected cells; host or cells: CV-1 cells
T1 sequence (Q96RI1 1-486): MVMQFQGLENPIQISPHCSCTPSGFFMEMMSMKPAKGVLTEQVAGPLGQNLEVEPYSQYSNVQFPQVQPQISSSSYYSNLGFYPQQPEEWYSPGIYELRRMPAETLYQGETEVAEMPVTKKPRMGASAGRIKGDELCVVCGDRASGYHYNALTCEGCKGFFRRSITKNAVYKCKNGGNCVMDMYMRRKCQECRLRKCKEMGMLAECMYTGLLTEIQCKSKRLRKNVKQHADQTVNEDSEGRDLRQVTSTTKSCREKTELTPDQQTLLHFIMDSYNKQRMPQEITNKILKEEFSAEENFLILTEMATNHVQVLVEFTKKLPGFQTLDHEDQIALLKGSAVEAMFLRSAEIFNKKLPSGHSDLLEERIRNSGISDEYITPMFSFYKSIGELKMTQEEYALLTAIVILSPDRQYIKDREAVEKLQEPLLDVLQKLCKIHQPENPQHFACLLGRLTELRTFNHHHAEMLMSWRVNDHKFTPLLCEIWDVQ
T1 sequence (P19793 1-462 partner): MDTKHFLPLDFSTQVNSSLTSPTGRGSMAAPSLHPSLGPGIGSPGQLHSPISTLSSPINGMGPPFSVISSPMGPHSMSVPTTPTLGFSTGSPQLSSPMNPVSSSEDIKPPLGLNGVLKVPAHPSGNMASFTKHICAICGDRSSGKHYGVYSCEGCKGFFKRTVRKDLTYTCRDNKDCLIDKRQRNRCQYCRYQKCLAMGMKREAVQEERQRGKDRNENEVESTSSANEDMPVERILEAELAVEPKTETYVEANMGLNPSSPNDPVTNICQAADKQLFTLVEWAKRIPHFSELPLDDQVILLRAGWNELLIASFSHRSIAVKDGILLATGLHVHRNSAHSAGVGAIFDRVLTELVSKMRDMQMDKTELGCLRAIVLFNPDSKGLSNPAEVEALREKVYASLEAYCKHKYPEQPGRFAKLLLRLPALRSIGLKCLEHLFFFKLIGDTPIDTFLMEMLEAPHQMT
Method in brief: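 CV-1 cells in charcoal-stripped FBS were transiently co-transfected with full-length human FXR, RXR, an ECRE×6-luciferase reporter, β-gal and YFP plasmids. Transfected cells were reseeded onto half-log compound dilutions and incubated 18 h. Luciferase luminescence was read after lysis, and EC50 was determined.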

FXR [2] = target: T1, FXR; test: In Vitro FXR Assay (TK): TK-ECRE-luc reporter in transfected CV-1 cells; assay type: cell-based; conditions: CV-1 cells transfected with hFXR, hRXR, 18 h incubation, luminescence
Method in brief: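 Luciferase read-out from lysed CV-1 cells exposed 18 h to DMSO-diluted compounds. Cells had been transfected overnight with expression plasmids for hFXR and hRXR plus TK-ECRE-luc reporter and pCMX-YFP, grown in charcoal-stripped serum at 37 °C, 5% CO2.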

SMILES	Cmpd/Fex (ratio of the EC50 for the test compound relative to the EC50 of the Fexaramine control) (FXR [1])	EC50 (FXR [2]) [µM]
COC(=O)/C=C/c1cccc(N(Cc2ccc(-c3cncs3)cc2)C(=O)C2CCCCC2)c1 [compound 69, (E)-Methyl 3-(3-(N-(4-(thiazol-5-yl)benzyl)cyclohexanecarboxamido)phenyl) acrylate]	+ (‘+’ means Cmpd/Fex > 100)	1 to 10
COC(=O)/C=C/c1cccc(N(Cc2ccc(-c3cscn3)cc2)C(=O)C2CCCCC2)c1 [compound 68, (E)-Methyl 3-(3-(N-(4-(thiazol-4-yl)benzyl)cyclohexanecarboxamido)phenyl) acrylate]	+ (‘+’ means Cmpd/Fex > 100)	1 to 10
C=C(C)c1ccc(-c2ccc(CN(C(=O)C3CCCCC3)c3cccc(/C=C/C(=O)OC)c3)cc2)cc1 [compound 71, (E)-Methyl 3-(3-(N-((4′-(prop-1-en-2-yl)-[1,1′-biphenyl]-4-yl)methyl)cyclohexanecarboxamido)phenyl) acrylate]	+++ (‘+++’ means Cmpd/Fex < 10)	1 to 10
COC(=O)/C=C/c1cccc(N(Cc2ccc(-c3ccc(N(C)C)cc3)cc2)C(=O)C2CCC2)c1 [compound 15, (E)-Methyl 3-(3-(N-((4′-(dimethylamino)-[1,1′-biphenyl]-4-yl)methyl)cyclobutanecarboxamido)phenyl) acrylate]	+++ (‘+++’ means Cmpd/Fex < 10)	1 to 10
COC(=O)/C=C/c1cccc(N(Cc2ccc(-c3ccc(N(C)C)cc3)cc2)C(=O)[C@H]2CC[C@H](OC)CC2)c1 [compound 9, (E)-Methyl 3-(3-((1s,4s)-N-((4′-(dimethylamino)-[1,1′-biphenyl]-4-yl)methyl)-4-methoxycyclohexanecarboxamido)phenyl)acrylate]	+++ (‘+++’ means Cmpd/Fex < 10)	≤ 1
COC(=O)/C=C/c1ccc(C)c(N(Cc2ccc(-c3ccc(N(C)C)cc3)cc2)C(=O)C2CCCCC2)c1 [compound 42, (E)-Methyl 3-(3-(N-((4′-(dimethylamino)-[1,1′-biphenyl]-4-yl)methyl)cyclohexanecarboxamido)-4-methylphenyl)acrylate]	+++ (‘+++’ means Cmpd/Fex < 10)	1 to 10

The next lines start with the values.

Cmpd/Fex (ratio of the EC50 for the test compound relative to the EC50 of the Fexaramine control) (FXR [1])	EC50 (FXR [2]) [µM]	SMILES
+++ (‘+++’ means Cmpd/Fex < 10)	1 to 10	COC(=O)/C=C/c1cccc(N(Cc2ccc(-c3ccc(C)c(OC)c3)cc2)C(=O)C2CCCCC2)c1 [compound 58, (E)-Methyl 3-(3-(N-((3′-methoxy-4′-methyl-[1,1′-biphenyl]-4-yl)methyl)cyclohexanecarboxamido)phenyl) acrylate]
+++ (‘+++’ means Cmpd/Fex < 10)	1 to 10	COC(=O)/C=C/c1cccc(N(Cc2ccc(-c3cccc(F)c3)cc2)C(=O)C2CCCCC2)c1 [compound 26, (E)-Methyl 3-(3-(N-((3′-fluoro-[1,1′-biphenyl]-4-yl)methyl)cyclohexanecarboxamido)phenyl)acrylate]
+++ (‘+++’ means Cmpd/Fex < 10)	1 to 10	COC(=O)/C=C/c1cccc(N(Cc2ccc(-c3ccccc3F)cc2)C(=O)C2CCCCC2)c1 [compound 27, (E)-Methyl 3-(3-(N-((2′-fluoro-[1,1′-biphenyl]-4-yl)methyl)cyclohexanecarboxamido)phenyl) acrylate]
+ (‘+’ means Cmpd/Fex > 100)	1 to 10	COC(=O)/C=C/c1cccc(N(Cc2ccc(-c3cccc(OC(F)(F)F)c3)cc2)C(=O)C2CCCCC2)c1 [compound 30, (E)-Methyl 3-(3-(N-((3′-(trifluoromethoxy)-[1,1′-biphenyl]-4-yl)methyl)cyclohexanecarboxamido)phenyl)acrylate]
